In paper PMC3783636 (ACS chemical biology, 2013):

B1: HD5ox: oxidized form of HD5 with three disulfide bonds (peptide, UniProt Q01523 20-94, looked up)
Defensin alpha 5: ESLQERADEATTQKQSGEDNQDLAISFAGNGLSALRTSGSQARATCYCRTGRCATRESLSGVCEISGRLYRLCCR
modifications: Defensin-5 oxidized, three disulfides
B2: HD5: 32-residue cysteine-rich host-defense peptide; the redox couple HD5ox/HD5red (peptide, UniProt Q01523 20-94, looked up)
Defensin alpha 5: B1 Defensin alpha 5
modifications: Defensin-5

How the values were obtained:
[1] = known Zn(II) affinity; ref Supporting Information; cited from earlier work
trypsin = settings: oxidized, triple-stranded β-sheet fold; cited from earlier work
[2] = Midpoint potential determination in DTT redox buffers; settings: pH 7.0, 75 mM HEPES, DTTred/DTTox redox buffers −230 to −290 mV, 25 µM HD5red or HD5ox, anaerobic, 20 h, rt (ca. 22 °C), HPLC peak areas, global fit

Row | Molecule | Kd for Zn(II) of the sensor (range in words) [1] | also measured
1 | O=C(O)c1ccccc1NN=C(N=Nc1cc(S(=O)(=O)O)ccc1O)c1ccccc1 [Zincon] | micromolar | –
2 | FluoZin-1 [FZ1] | micromolar | –
3 | Zinpyr-4 [ZP4] | mid-picomolar | –
4 | B1 | – | stability to trypsin (trypsin): resistant to degradation
5 | B2 | – | midpoint potential [2]: −257 mV
